pIC50: −log10 of the molar value.
Tested on: 743489-274-T-PDC complex spheroid growth
Assay: Anticancer human tumor 743489-274-T-PDC patient-derived renal cell carcinoma cell line growth inhibition [AhR]
Details: for pIC50: curve of first compound; for viability, T/C: stronger effect = lower value; active means viability on the fitted dose curve at most 10% of control; inactive means the rest
Method in brief: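 Complex tumor spheroids co-cultured with HUVEC and human MSC stroma; AhR antagonists tested in combination with standard-of-care and investigational agents. Top concentration at or near clinical Cmax (else 10 microM), half-log dilutions; growth expressed as percent test/control.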

[1] = second compound 0.1 µM, first compound 0.0316 µM
[2] = second compound 0.1 µM, first compound 0.1 µM
[3] = second compound 0.1 µM, first compound 0.316 µM
[4] = second compound 0.1 µM, first compound 1 µM
[5] = second compound 0.1 µM, first compound 3.16 µM
[6] = second compound 0.1 µM, first compound 10 µM
[7] = second compound 0.316 µM, first compound 0.0316 µM
[8] = second compound 0.316 µM, first compound 0.1 µM
[9] = second compound 0.316 µM, first compound 0.316 µM
[10] = second compound 0.316 µM, first compound 1 µM
[11] = second compound 0.316 µM, first compound 3.16 µM
[12] = second compound 0.316 µM, first compound 10 µM
[13] = second compound 1 µM, first compound 0.0316 µM
[14] = second compound 1 µM, first compound 0.1 µM
[15] = second compound 1 µM, first compound 0.316 µM
[16] = second compound 1 µM, first compound 1 µM
[17] = second compound 1 µM, first compound 3.16 µM
[18] = second compound 1 µM, first compound 10 µM
[19] = second compound 3.16 µM, first compound 0.0316 µM
[20] = second compound 3.16 µM, first compound 0.1 µM
[21] = second compound 3.16 µM, first compound 0.316 µM
[22] = second compound 3.16 µM, first compound 1 µM
[23] = second compound 3.16 µM, first compound 3.16 µM
[24] = second compound 3.16 µM, first compound 10 µM
[25] = second compound 10 µM, first compound 0.0316 µM
[26] = second compound 10 µM, first compound 0.1 µM
[27] = second compound 10 µM, first compound 0.316 µM
[28] = second compound 10 µM, first compound 1 µM
[29] = second compound 10 µM, first compound 3.16 µM
[30] = second compound 10 µM, first compound 10 µM
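Further: spheroids exposed to agents for 7 days before readout.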
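Wherever viability, T/C is given: 100% = DMSO vehicle control wells.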

CC(C)c1c(-c2ccccc2)nc2c(C#N)c[nH]n2c1=O + CC(CO)NC(=O)c1cc(-c2ccc(Cl)cc2)nn(-c2cnn(C)c2)c1=O
inactive: viability, T/C [1] 101% | viability, T/C [2] 96.5% | viability, T/C [3] 101% | viability, T/C [4] 111% | viability, T/C [5] 93.9% | viability, T/C [6] 102% | viability, T/C [7] 93% | viability, T/C [8] 97.9% | viability, T/C [9] 99.2% | viability, T/C [10] 93.2% | viability, T/C [11] 90.4% | viability, T/C [12] 102% | viability, T/C [13] 94.7% | viability, T/C [14] 90.3% | viability, T/C [15] 97.5% | viability, T/C [16] 90.2% | viability, T/C [17] 102% | viability, T/C [18] 101% | viability, T/C [19] 90% | viability, T/C [20] 99.5% | viability, T/C [21] 99.9% | viability, T/C [22] 96.6% | viability, T/C [23] 98.3% | viability, T/C [24] 95% | viability, T/C [25] 98.9% | viability, T/C [26] 101% | viability, T/C [27] 99.7% | viability, T/C [28] 95.7% | viability, T/C [29] 95.1% | viability, T/C [30] 93.8%
< 5.00: pIC50 (second compound 0.1 µM) | pIC50 (second compound 0.316 µM) | pIC50 (second compound 1 µM) | pIC50 (second compound 3.16 µM) | pIC50 (second compound 10 µM)

CC1COCCN1c1cc(-c2ccnn2C)c2ccnc(-c3ccn[nH]3)c2n1 (stereo not given) + CC(CO)NC(=O)c1cc(-c2ccc(Cl)cc2)nn(-c2cnn(C)c2)c1=O
< 6.00: pIC50 (second compound 0.1 µM) | pIC50 (second compound 0.316 µM) | pIC50 (second compound 1 µM) | pIC50 (second compound 3.16 µM) | pIC50 (second compound 10 µM)
inactive: viability, T/C (second compound 0.1 µM, first compound 0.00316 µM) 105% | viability, T/C (second compound 0.1 µM, first compound 0.01 µM) 97.6% | viability, T/C [1] 99.9% | viability, T/C [2] 91.4% | viability, T/C [3] 99.2% | viability, T/C [4] 88.8% | viability, T/C (second compound 0.316 µM, first compound 0.00316 µM) 92% | viability, T/C (second compound 0.316 µM, first compound 0.01 µM) 97.7% | viability, T/C [7] 93.9% | viability, T/C [8] 97.2% | viability, T/C [9] 93.4% | viability, T/C [10] 71.5% | viability, T/C (second compound 1 µM, first compound 0.00316 µM) 87.6% | viability, T/C (second compound 1 µM, first compound 0.01 µM) 90% | viability, T/C [13] 93.4% | viability, T/C [14] 96.2% | viability, T/C [15] 88.9% | viability, T/C [16] 81.8% | viability, T/C (second compound 3.16 µM, first compound 0.00316 µM) 112% | viability, T/C (second compound 3.16 µM, first compound 0.01 µM) 91.7% | viability, T/C [19] 105% | viability, T/C [20] 92.2% | viability, T/C [21] 88.5% | viability, T/C [22] 65.6% | viability, T/C (second compound 10 µM, first compound 0.00316 µM) 112% | viability, T/C (second compound 10 µM, first compound 0.01 µM) 91.8% | viability, T/C [25] 92.1% | viability, T/C [26] 93.2% | viability, T/C [27] 95.9% | viability, T/C [28] 76.8%

COc1ccc([C@@H](O)c2cc(-c3ncnc4cc(N5CCOCC5)ccc34)c(F)cc2Cl)nn1 + CC(CO)NC(=O)c1cc(-c2ccc(Cl)cc2)nn(-c2cnn(C)c2)c1=O
5.43: pIC50 (second compound 0.316 µM)
5.59: pIC50 (second compound 3.16 µM)
5.49: pIC50 (second compound 1 µM)
5.51: pIC50 (second compound 0.1 µM)
inactive: viability, T/C [1] 103% | viability, T/C [2] 96.8% | viability, T/C [3] 92.4% | viability, T/C [4] 86% | viability, T/C [5] 48.8% | viability, T/C [6] 28.8% | viability, T/C [7] 86% | viability, T/C [8] 87.8% | viability, T/C [9] 89.4% | viability, T/C [10] 78.2% | viability, T/C [11] 54% | viability, T/C [12] 25.2% | viability, T/C [13] 87.9% | viability, T/C [14] 89.4% | viability, T/C [15] 88.2% | viability, T/C [16] 77.9% | viability, T/C [17] 50.7% | viability, T/C [18] 25.5% | viability, T/C [19] 92.3% | viability, T/C [20] 81.7% | viability, T/C [21] 87.3% | viability, T/C [22] 73.9% | viability, T/C [23] 45% | viability, T/C [24] 25.7% | viability, T/C [25] 101% | viability, T/C [26] 92% | viability, T/C [27] 93.8% | viability, T/C [28] 79.3% | viability, T/C [29] 45.5% | viability, T/C [30] 20.9%
5.56: pIC50 (second compound 10 µM)

— PubChem BioAssay AID1919002 (Molecular Pharmacology Branch, DTP, NCI, 2023)
